molecular target: GCN2 kinase (Homo sapiens (Human), UniProt Q9P2K8); assay: GCN2 Enzyme Inhibition Assay (Transcreener ADP2 fluorescence polarization); assay type: biochemical; settings: 280 μM ATP, 200 μM (RS)7 peptide, 4 nM GCN2, 25° C.
Outline: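 Transcreener ADP2 fluorescence polarization detection of ADP from 4 nM GCN2 with (RS)7 substrate in 25 mM Tris-HCl pH 7.5, 50 mM NaCl, 10 mM MgCl2, 1 mM DTT. Compound pre-incubated with enzyme 10 min at 25 °C; reaction started by ATP, run 1 h at 25 °C. IC50 and Ki(app) by tight-binding fit.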

GCN2 kinase, sequence (Q9P2K8 whole entry): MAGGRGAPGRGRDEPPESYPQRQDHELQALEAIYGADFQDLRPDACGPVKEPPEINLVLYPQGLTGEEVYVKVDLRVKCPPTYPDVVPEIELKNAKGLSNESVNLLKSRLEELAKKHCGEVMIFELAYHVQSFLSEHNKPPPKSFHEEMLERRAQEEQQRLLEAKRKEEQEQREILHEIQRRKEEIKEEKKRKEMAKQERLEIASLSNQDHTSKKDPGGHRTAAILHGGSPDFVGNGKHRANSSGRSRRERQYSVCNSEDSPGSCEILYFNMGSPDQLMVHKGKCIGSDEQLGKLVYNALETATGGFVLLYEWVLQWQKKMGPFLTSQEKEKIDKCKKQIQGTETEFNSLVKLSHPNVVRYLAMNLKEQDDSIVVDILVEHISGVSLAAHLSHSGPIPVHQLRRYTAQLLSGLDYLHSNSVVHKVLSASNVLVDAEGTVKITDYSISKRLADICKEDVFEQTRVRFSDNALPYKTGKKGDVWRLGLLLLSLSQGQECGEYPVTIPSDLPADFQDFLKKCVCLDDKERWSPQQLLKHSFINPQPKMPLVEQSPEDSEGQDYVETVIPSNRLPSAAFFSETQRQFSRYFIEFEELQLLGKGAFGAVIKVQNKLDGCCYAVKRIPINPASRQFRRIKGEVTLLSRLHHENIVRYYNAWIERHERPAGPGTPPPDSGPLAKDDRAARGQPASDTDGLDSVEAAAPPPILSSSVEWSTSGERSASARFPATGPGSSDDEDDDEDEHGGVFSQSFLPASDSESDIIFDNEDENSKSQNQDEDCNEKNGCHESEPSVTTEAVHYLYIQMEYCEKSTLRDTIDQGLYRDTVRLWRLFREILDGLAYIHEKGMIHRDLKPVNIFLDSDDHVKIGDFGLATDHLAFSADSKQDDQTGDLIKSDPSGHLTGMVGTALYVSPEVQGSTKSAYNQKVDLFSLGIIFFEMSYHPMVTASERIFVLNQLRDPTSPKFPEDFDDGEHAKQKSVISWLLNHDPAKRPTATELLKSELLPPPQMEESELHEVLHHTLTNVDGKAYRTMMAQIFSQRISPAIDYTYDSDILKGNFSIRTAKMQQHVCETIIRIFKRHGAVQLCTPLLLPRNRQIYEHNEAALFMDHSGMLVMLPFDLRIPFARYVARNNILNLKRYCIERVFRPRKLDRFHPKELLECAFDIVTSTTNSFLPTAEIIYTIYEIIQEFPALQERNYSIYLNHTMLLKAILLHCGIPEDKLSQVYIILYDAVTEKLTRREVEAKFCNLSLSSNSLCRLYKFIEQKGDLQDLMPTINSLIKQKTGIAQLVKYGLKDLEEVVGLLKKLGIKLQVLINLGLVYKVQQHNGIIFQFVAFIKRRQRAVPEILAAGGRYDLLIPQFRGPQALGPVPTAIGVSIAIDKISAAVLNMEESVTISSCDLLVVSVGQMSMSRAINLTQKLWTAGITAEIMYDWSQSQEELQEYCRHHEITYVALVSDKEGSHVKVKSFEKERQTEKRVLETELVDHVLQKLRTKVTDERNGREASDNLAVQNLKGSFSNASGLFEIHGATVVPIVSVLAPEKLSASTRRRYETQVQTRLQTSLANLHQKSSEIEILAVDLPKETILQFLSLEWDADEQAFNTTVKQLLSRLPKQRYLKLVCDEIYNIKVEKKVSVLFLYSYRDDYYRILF

IC50, 0.01 to 0.1 µM:
Cc1cnc(N2C[C@H](C)C[C@@H](c3cn[nH]c3)C2)nc1-c1cnc2ccc(Cl)cn12 (stereo in doubt) [I-184, 6-chloro-3-(5-methyl-2-((3R,5S)-3-methyl-5-(1H-pyrazol-4-yl)piperidin-1-yl)pyrimidin-4-yl)imidazo[1,2-a]pyridine]
CC1C(c2cn[nH]c2)N(C2COC2)CCN1c1ccnc(-c2cnc3ccc(C(F)(F)F)cn23)n1 (stereo not drawn) [I-322, 4-[2-methyl-4-(oxetan-3-yl)-3-(1H-pyrazol-4-yl)piperazin-1-yl]-2-[6-(trifluoromethyl)imidazo[1,2-a]pyridin-3-yl]pyrimidine]
C[C@@H](NS(C)(=O)=O)[C@H]1CN(c2ccnc(-c3cnc4ccc(C(F)(F)F)cn34)n2)CCO1 [I-406, N—((R)-1-((R)-4-(2-(6-(trifluoromethyl)imidazo[1,2-a]pyridin-3-yl)pyrimidin-4-yl)morpholin-2-yl)ethyl)methanesulfonamide]
COCCN1CCN(c2ccnc(-c3cnc4ccc(C(F)(F)F)cn34)n2)CC1C(N)=O (stereo not drawn) [I-258, 1-(2-methoxyethyl)-4-(2-(6-(trifluoromethyl)imidazo[1,2-a]pyridin-3-yl)pyrimidin-4-yl)piperazine-2-carboxamide]

IC50, 0.1 to 1 µM:
C[C@@H]1CN(c2ccnc(-c3cnc4ccc(C(F)(F)F)cn34)n2)C[C@H](C)N1C(=O)CC1COC1 [I-501, 1-(cis-2,6-dimethyl-4-(2-(6-(trifluoromethyl)imidazo[1,2-a]pyridin-3-yl)pyrimidin-4-yl)piperazin-1-yl)-2-(oxetan-3-yl)ethan-1-one]
Cc1[nH]ncc1[C@H]1[C@H](C)N(c2ccnc(-c3cnc4ccc(C(F)(F)F)cn34)n2)CCN1C1COC1 [I-367]
Cc1[nH]ncc1C1N[C@H](C)CN(c2nccc(-c3cnc4ccc(C(F)(F)F)cn34)n2)[C@@H]1C (stereo partly drawn) [I-173, 3-(2-((2R,5R)-2,5-dimethyl-3-(5-methyl-1H-pyrazol-4-yl)piperazin-1-yl)pyrimidin-4-yl)-6-(trifluoromethyl)imidazo[1,2-a]pyridine]
O=C1NC[C@]12CCCN(c1ccnc(-c3cnc4ccc(C(F)(F)F)cn34)n1)C2 [I-296, (S)-6-(2-(6-(trifluoromethyl)imidazo[1,2-a]pyridin-3-yl)pyrimidin-4-yl)-2,6-diazaspiro[3.5]nonan-1-one]
Clc1ccc2ncc(-c3nccc(N4CCCC5(CNC5)C4)n3)n2c1 [I-299, 6-(2-(6-chloroimidazo[1,2-a]pyridin-3-yl)pyrimidin-4-yl)-2,6-diazaspiro[3.5]nonane]
CC1CN(c2ccnc(-c3cnc4ccc(C(F)(F)F)cn34)n2)CC(C)N1 (stereo not drawn) [I-231, 3-(4-(3,5-dimethylpiperazin-1-yl)pyrimidin-2-yl)-6-(trifluoromethyl)imidazo[1,2-a]pyridine]
Cc1nn(C)cc1[C@H]1C[C@@H](C)CN(c2nccc(-c3cnc4ccc(C(F)(F)F)cn34)n2)C1 [I-142, 3-(2-((3R,5R)-3-(1,3-dimethyl-1H-pyrazol-4-yl)-5-methylpiperidin-1-yl)pyrimidin-4-yl)-6-(trifluoromethyl)imidazo[1,2-a]pyridine]

IC50, < 0.01 µM:
Cc1[nH]ncc1[C@H]1CN(c2ccnc(-c3cnc4ccc(C(F)(F)F)cn34)n2)C[C@@H](C)O1 [I-125, (2R,6S)-2-methyl-6-(5-methyl-1H-pyrazol-4-yl)-4-(2-(6-(trifluoromethyl)imidazo[1,2-a]pyridin-3-yl)pyrimidin-4-yl)morpholine]
FC(F)(F)c1ccc2ncc(-c3ccnc(N4CCN(C[C@H]5CCCOC5)[C@@H](c5cn[nH]c5)C4)n3)n2c1 [I-542, 3-(2-((S)-3-(1H-pyrazol-4-yl)-4-(((R)-tetrahydro-2H-pyran-3-yl)methyl)piperazin-1-yl)pyrimidin-4-yl)-6-(trifluoromethyl)imidazo[1,2-a]pyridine]

same assay, conditions: Ki(app); 280 μM ATP, 200 μM (RS)7 peptide, 4 nM GCN2, 25° C.

Ki, 0.1 to 1 µM:
O=C1CCN(c2ccnc(-c3cnc4ccc(Cl)cn34)n2)CCN1 [I-26, 1-[2-(6-Chloroimidazo[1,2-a]pyridin-3-yl)pyrimidin-4-yl]-1,4-diazepan-5-one]

Ki, < 0.01 µM:
Cc1noc([C@H]2CN(c3ccnc(-c4cnc5ccc(C(F)(F)F)cn45)n3)C[C@@H](C)O2)n1 (stereo in doubt) [I-90, 2-methyl-6-(3-methyl-1,2,4-oxadiazol-5-yl)-4-{2-[6-(trifluoromethyl)imidazo[1,2-a]pyridin-3-yl]pyrimidin-4-yl}morpholine]

molecular target: intracellular GCN2 (phosphorylation of the GCN2 substrate eIF2α) (Homo sapiens (Human), UniProt Q9P2K8); assay: GCN2 Cellular Inhibition Assay (AlphaScreen SureFire P-eIF2α Ser51, borrelidin-treated U2OS cells); assay type: cell-based; settings: 10 μM borrelidin, 1 h, phosphorylated eIF2α Ser51, read-out: GCN2 Biomarker (IC50)
Procedure: Compounds can be screened for their ability to inhibit intracellular GCN2 using an AlphaScreen assay (Perkin Elmer) to detect phosphorylation of the GCN2 substrate eIF2α in borrelidin-treated cells. U2OS cells are plated at 5,000 cells per well in 384-well white polystyrene plates (Corning 3570) in McCoy's 5A media (GIBCO 26600-023) supplemented with 10% foetal bovine serum (SAFC 12103C), Penicillin/Streptomycin solution diluted 1:100 (Sigma P0781), and 2 mM L-glutamine (Sigma G7513), and allowed to adhere overnight at 37° C. in 5% CO2. Compounds are then added to the cell media from a final concentration of 40 μM in 4-fold serial dilutions. Borrelidin (FluoroChem M01440) is immediately added to the wells to a final concentration of 10 μM and the cells are incubated for 1 h at 37° C. in 5% CO2. After 1 h of treatment with borrelidin, the media is removed, and the cells are lysed with lysis buffer (TGR BioSceinces TGRLB) at ambient temperature.
An AlphaScreen SureFire P-eIF2α (Ser51) assay kit (Perkin Elmer TGREIF2S) was used to measure levels of eIF2α phosphorylated on Serine 51. Anti-phosphorylated eIF2α Ser51 antibody-linked acceptor beads (TGR BioScience 6760617) are added to the cell homogenate (diluted 1:250 into a mixture of activation (TGR BioScience TGRAB) and reaction buffer (TGR BioScience TGREIF2S) prepared immediately before use). The plate is then incubated for 2 h at ambient temperature in the dark. Anti-eIF2α antibody-linked donor beads (TGR BioScience 6760617) were then added (diluted 1:100 in dilution buffer (TGR BioScience TGRDB) prepared immediately before use). The plate is then incubated overnight at ambient temperature in the dark.
Plates are analyzed on an Alpha Technology-compatible PHERAstar FS plate reader (BMG Labtech Version 1.14) to quantify phosphorylated eIF2α Ser51 levels. The percentage inhibition of phosphorylated eIF2α is calculated by comparison to control wells stimulated with borrelidin alone.

intracellular GCN2 (phosphorylation of the GCN2 substrate eIF2α), sequence (Q9P2K8 whole entry): as above

IC50, 0.5 to 5 µM:
C[C@@H](NS(C)(=O)=O)[C@H]1CN(c2ccnc(-c3cnc4ccc(C(F)(F)F)cn34)n2)CCO1 [I-406, N—((R)-1-((R)-4-(2-(6-(trifluoromethyl)imidazo[1,2-a]pyridin-3-yl)pyrimidin-4-yl)morpholin-2-yl)ethyl)methanesulfonamide]
C[C@@H]1CN(c2ccnc(-c3cnc4ccc(C(F)(F)F)cn34)n2)C[C@H](C)N1C(=O)CC1COC1 [I-501, 1-(cis-2,6-dimethyl-4-(2-(6-(trifluoromethyl)imidazo[1,2-a]pyridin-3-yl)pyrimidin-4-yl)piperazin-1-yl)-2-(oxetan-3-yl)ethan-1-one]
O=S1(=O)CC2(CC(N3CCN(c4ccnc(-c5cnc6ccc(C(F)(F)F)cn56)n4)C[C@@H]3c3cn[nH]c3)C2)C1 [I-556, (S)-6-(2-(1H-pyrazol-4-yl)-4-(2-(6-(trifluoromethyl)imidazo[1,2-a]pyridin-3-yl)pyrimidin-4-yl)piperazin-1-yl)-2-thiaspiro[3.3]heptane 2,2-dioxide]

IC50, < 0.5 µM:
Cc1cnc(N2C[C@H](C)C[C@@H](c3cn[nH]c3)C2)nc1-c1cnc2ccc(Cl)cn12 (stereo in doubt) [I-184, 6-chloro-3-(5-methyl-2-((3R,5S)-3-methyl-5-(1H-pyrazol-4-yl)piperidin-1-yl)pyrimidin-4-yl)imidazo[1,2-a]pyridine]
CC1C(c2cn[nH]c2)N(C2COC2)CCN1c1ccnc(-c2cnc3ccc(C(F)(F)F)cn23)n1 (stereo not drawn) [I-322, 4-[2-methyl-4-(oxetan-3-yl)-3-(1H-pyrazol-4-yl)piperazin-1-yl]-2-[6-(trifluoromethyl)imidazo[1,2-a]pyridin-3-yl]pyrimidine]
Cc1noc([C@H]2CN(c3ccnc(-c4cnc5ccc(C(F)(F)F)cn45)n3)C[C@@H](C)O2)n1 (stereo in doubt) [I-90, 2-methyl-6-(3-methyl-1,2,4-oxadiazol-5-yl)-4-{2-[6-(trifluoromethyl)imidazo[1,2-a]pyridin-3-yl]pyrimidin-4-yl}morpholine]
FC(F)(F)c1ccc2ncc(-c3ccnc(N4CCOC(c5cn[nH]c5)C4)n3)n2c1 (stereo not drawn) [I-10, 2-(1H-pyrazol-4-yl)-4-(4-(6-(trifluoromethyl)imidazo[1,2-a]pyridin-3-yl)pyrimidin-2-yl)morpholine]
FC(F)(F)c1ccc2ncc(-c3nccc(N4CCOC(c5cn[nH]c5)C4)n3)n2c1 (stereo not drawn) [I-2, 1H-Pyrazol-4-yl-4-[2-[6-(trifluoromethyl)imidazo[1,2-a]pyridin-3-yl]pyrimidin-4-yl]morpholine]
FC(F)(F)c1ccc2ncc(-c3nccc(N4CCN(C[C@H]5CC56CC6)[C@@H](c5cn[nH]c5)C4)n3)n2c1 [I-553, 3-(4-((S)-3-(1H-pyrazol-4-yl)-4-(((S)-spiro[2.2]pentan-1-yl)methyl)piperazin-1-yl)pyrimidin-2-yl)-6-(trifluoromethyl)imidazo[1,2-a]pyridine]
FC(F)(F)c1ccc2ncc(-c3nccc(N4CCOC(c5cn[nH]c5)C4)n3)n2c1 (stereo not drawn) [I-3, 1H-pyrazol-4-yl-4-[2-[6-(trifluoromethyl)imidazo[1,2-a]pyridin-3-yl]pyrimidin-4-yl]morpholine]
C[C@@H]1CN(c2nccc(-c3cnc4ccc(C(F)(F)F)cn34)n2)C[C@H](c2cn[nH]c2)O1 [I-118]
FC(F)(F)c1ccc2ncc(-c3nccc(N4CCN(C[C@@H]5CC56CC6)[C@H](c5cn[nH]c5)C4)n3)n2c1 [I-552, 3-(4-((R)-3-(1H-pyrazol-4-yl)-4-(((R)-spiro[2.2]pentan-1-yl)methyl)piperazin-1-yl)pyrimidin-2-yl)-6-(trifluoromethyl)imidazo[1,2-a]pyridine]
Cc1[nH]ncc1[C@H]1CN(c2nccc(-c3cnc4ccc(C(F)(F)F)cn34)n2)C[C@@H](C)O1 (relative stereo) [I-115, cis-2-Methyl-6-(3-methyl-1H-pyrazol-4-yl)-4-{4-[6-(trifluoromethyl)imidazo[1,2-a]pyridin-3-yl]pyrimidin-2-yl}morpholine]
Cc1n[nH]cc1[C@H]1CN(c2ccnc(-c3cnc4ccc(C(F)(F)F)cn34)n2)C[C@@H](C)O1 [I-120]
C[C@@H]1CN(c2nccc(-c3cnc4ccc(C(F)(F)F)cn34)n2)C[C@H](c2cn[nH]c2)O1 (relative stereo) [I-117, cis-2-Methyl-6-(1H-pyrazol-4-yl)-4-{4-[6-(trifluoromethyl)imidazo[1,2-a]pyridin-3-yl]pyrimidin-2-yl}morpholine]
C[C@H]1C[C@@H](c2cn[nH]c2)CN(c2nccc(-c3cnc4ccc(C(F)(F)F)cn34)n2)C1 (mixture of isomers) [I-114, 2-[3-methyl-5-(1H-pyrazol-4-yl)piperidin-1-yl]-4-[6-(trifluoromethyl)imidazo[1,2-a]pyridin-3-yl]pyrimidine]
FC(F)(F)c1ccc2ncc(-c3nccc(N4CCN(C[C@@H]5CC56CC6)[C@@H](c5cn[nH]c5)C4)n3)n2c1 [I-554, 3-(4-((S)-3-(1H-pyrazol-4-yl)-4-(((R)-spiro[2.2]pentan-1-yl)methyl)piperazin-1-yl)pyrimidin-2-yl)-6-(trifluoromethyl)imidazo[1,2-a]pyridine]
FC(F)(F)c1ccc2ncc(-c3ccnc(N4CCOC(c5cn[nH]c5)C4)n3)n2c1 (stereo not drawn) [I-44, 2-(1H-Pyrazol-4-yl)-4-[4-[6-(trifluoromethyl)imidazo[1,2-a]pyridin-3-yl]pyrimidin-2-yl]morpholine]
